Laboratory results taken from patent US20170290891A1, “METHOD OF BONE REGENERATION OR BONE AUGMENTATION” (TOYOBO CO., LTD., priority 2016, published 2017).

Key:
[1] = tested on: standardized full-thickness bone defect of the calvarium; assay: Test Example 1: rat calvarium bone defect, OCP or β-TCP collagen composite + teriparatide subcutaneous injection; type: in vivo, Male Wistar rats
Source text: Male Wistar rats (12 weeks old) were each intraperitoneally anesthetized, and a skin incision and a periosteal incision were made in the calvarium part to expose the calvarium. A standardized full-thickness bone defect (diameter: about 9 mm), for which spontaneous recovery could not be expected, was created. Then, one OCP/collagen composite disc produced in Production Example 2 or one β-TCP/collagen composite disc produced in Production Example 3 was implanted therein. As the control, rats in which only a bone defect was created, and no sample was implanted (untreated group) were prepared. After the sample was implanted, the periosteum and skin were sutured, and the surgery was completed. […] In the rats of the teriparatide subcutaneous injection group, 10 μg/kg of the teriparatide prepared in Production Example 5 was subcutaneously injected immediately after surgery and every day thereafter. Subcutaneous injection was performed in such a manner that the thawed teriparatide solution was sucked by a 1-mL syringe (27 G injection needle), the back skin was sterilized with a dilute Hibitane solution, and then a considerable amount of teriparatide solution was injected subcutaneously in the back. The observation period after surgery was 8 weeks for each group, and 5 rats were used in each period. […] Similarly, after CT photography 8 weeks after surgery, the rats were euthanized under anesthesia with an excess amount of pentobarbital. […] Then, tissue sections (thickness: […]) cut in the frontal plane were prepared, and a histological search was performed by hematoxylin-eosin staining. Further, using the plural tissue sections corresponding to the center of the defect of each sample, the ratio of new bone (n-Bone %) in the created defect was examined by histological quantification. Variance analysis, etc., were conducted using the average value and standard deviation of n-Bone % in each group, and a significance test was conducted. The significance level was set at 5%.

local bone formation = details: subcutaneous administration of PTH; NPL 2; cited from earlier work

Structure (SMILES): CC[C@H](C)[C@H](NC(=O)[C@H](CCC(=O)O)NC(=O)[C@H](CO)NC(=O)[C@@H](NC(=O)[C@@H](N)CO)C(C)C)C(=O)N[C@@H](CCC(N)=O)C(=O)N[C@@H](CC(C)C)C(=O)N[C@@H](CCSC)C(=O)N[C@@H](Cc1cnc[nH]1)C(=O)N[C@@H](CC(N)=O)C(=O)N[C@@H](CC(C)C)C(=O)NCC(=O)N[C@@H](CCCCN)C(=O)N[C@@H](Cc1cnc[nH]1)C(=O)N[C@@H](CC(C)C)C(=O)N[C@@H](CC(N)=O)C(=O)N[C@@H](CO)C(=O)N[C@@H](CCSC)C(=O)N[C@@H](CCC(=O)O)C(=O)N[C@@H](CCCN=C(N)N)C(=O)N[C@H](C(=O)N[C@@H](CCC(=O)O)C(=O)N[C@@H](Cc1c[nH]c2ccccc12)C(=O)N[C@@H](CC(C)C)C(=O)N[C@@H](CCCN=C(N)N)C(=O)N[C@@H](CCCCN)C(=O)N[C@@H](CCCCN)C(=O)N[C@@H](CC(C)C)C(=O)N[C@@H](CCC(N)=O)C(=O)N[C@@H](CC(=O)O)C(=O)N[C@H](C(=O)N[C@@H](Cc1cnc[nH]1)C(=O)N[C@@H](CC(N)=O)C(=O)N[C@@H](Cc1ccccc1)C(=O)O)C(C)C)C(C)C [teriparatide]
- ratio of new bone (n-Bone %) in the defect ([1]; 8 weeks after surgery, PTH groups: teriparatide 10 μg/kg subcutaneously every day, FIG. 5): 31.1±10.2%
- X-ray photographs of the bone defect sites, living state (radiopaque image) ([1]; FIG. 1, PTH groups: teriparatide 10 μg/kg s.c. daily): radiopaque images in the defects were equally scarce
- X-ray photographs of the calvarium and the surrounding tissue (radiopaque image) ([1]; FIG. 2, PTH groups: teriparatide 10 μg/kg s.c. daily): their thickness was thinner than that of the existing bone
- stained pathological specimens, low-magnification (×1.25) ([1]; FIG. 3, 8 weeks after surgery, hematoxylin-eosin): thin bone tissue extending from the defect margins
- stained pathological specimens, high-magnification ([1]; FIG. 4, 8 weeks after surgery, hematoxylin-eosin): thin new bone extended from the defect margins
- new bone formation (summary of FIGS. 1 to 5) ([1]; teriparatide 10 μg/kg s.c. daily, 8 weeks): new bone formation was not observed
- local bone formation (local bone formation): significantly promoted
